# Results taken from patent publication US20170305857A1, “N-ACYLPIPERIDINE ETHER TROPOMYOSIN-RELATED KINASE INHIBITORS” (Pfizer Limited, priority 2014, published 2017).
# Molecular target: T1, recombinant His-tagged cytoplasmic domains of TRKA receptor (NTRK1, PV3144, aa 441-796) (Homo sapiens, UniProt P04629)
# T1 construct: aa 441-796; His; purchased Invitrogen PV3144
# Test: Isolated TRK enzyme assay (HTRF KinEASE-TK, PV3144 TrkA enzyme assay)
# Type: biochemical
# Settings: 4 nM enzyme, 40 uM ATP, 35 min, arithmetic mean where more than one reading
# Experimental: Isolated TRK Enzyme assays use the HTRF KinEASE-TK kit (Cisbio Cat #62TK0PEJ) with recombinant His-tagged cytoplasmic domains of TRKA receptor sourced from Invitrogen (see table below). This activity-assay measures the phosphorylation of tyrosine residues within a substrate from the HTRF kit which has been validated by Cisbio for a variety of tyrosine kinases including the TRK receptors.
# 0.5 mM stock solutions of test compounds are prepared and serially diluted in 100% DMSO. […] Greiner low volume black plates containing 0.2 ul of serially diluted compound, standard and HPE/ZPE are created using the Bravo nanolitre dispenser.
# 1× enzyme buffer is prepared from 5× Enzymatic Buffer from the Cisbio KinEASE TK kit using MilliQ water. The buffer is then supplemented with 10 mM MgCl and 2 mM DTT (both from Sigma).
# Following this preactivation step, 5 ul/well of enzyme+ATP mix is added using a Multidrop Micro to the assay plate, spotted with 0.2 ul 100% DMSO compound. This is left for 20 mins at room temperature before adding 5 ul of 2 uM TK-substrate-Biotin (from the Cisbio kit) diluted in 1× enzyme buffer (1 uM FAC) using the Multidrop Micro. The reaction is incubated at room temperature for the optimized assay reaction time (see table).
# After the Detection Reagent addition, plates are covered and incubated at room temperature for 60 minutes. […] Test compound data are expressed as percentage inhibition defined by HPE and ZPE values for each plate. Percentage inhibition in the presence of test compound is plotted against compound concentration on a log scale to determine an IC50 from the resultant sigmoid curve.
# Where more than one reading was taken, the arithmetic mean is presented.
# T1 sequence (P04629 441-796): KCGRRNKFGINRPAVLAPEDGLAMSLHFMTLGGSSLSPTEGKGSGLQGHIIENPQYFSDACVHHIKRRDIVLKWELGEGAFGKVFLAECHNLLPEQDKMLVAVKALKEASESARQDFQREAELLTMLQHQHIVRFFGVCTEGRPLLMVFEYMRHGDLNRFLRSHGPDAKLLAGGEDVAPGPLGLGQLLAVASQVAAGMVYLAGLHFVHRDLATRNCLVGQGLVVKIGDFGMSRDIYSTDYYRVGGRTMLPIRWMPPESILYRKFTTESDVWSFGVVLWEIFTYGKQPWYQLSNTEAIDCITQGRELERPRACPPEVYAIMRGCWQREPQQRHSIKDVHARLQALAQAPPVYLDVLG
row,Compound,IC50 [nM]
1,"NC(=O)c1cc(-c2cnn(C3CCS(=O)(=O)C3)c2)ccc1OC1CCN(C(=O)Cc2ccc(OC(F)(F)F)cc2)CC1 (racemic) [Example 14, Racemic 5-[1-(1,1-dioxidotetrahydrothiophen-3-yl)-1H-pyrazol-4-yl]-2-[(1-{[4-(trifluoromethoxy)phenyl]acetyl}piperidin-4-yl)oxy]benzamide]",2.4
2,"NC(=O)c1cc(-c2cnn(C3CS(=O)(=O)C3)c2)cnc1O[C@H]1CCN(C(=O)Cc2ccc(OC(F)(F)F)cc2)C[C@H]1F (racemic) [Example 38, 1:1 Cis-racemic 5-[1-(1,1-dioxidothietan-3-yl)-1H-pyrazol-4-yl]-2-{[3-fluoro-1-{[4-(trifluoromethoxy)phenyl]acetyl}piperidin-4-yl]oxy}pyridine-3-carboxamide]",2
3,"NC(=O)c1cc(-c2cnn(C3CS(=O)(=O)C3)c2)cnc1O[C@H]1CCN(C(=O)Cc2ccc(OC3CC3)cn2)C[C@H]1F (racemic) [Example 39, 1:1 Cis-racemic 2-{[1-{[5-(cyclopropyloxy)pyridin-2-yl]acetyl}-3-fluoropiperidin-4-yl]oxy}-5-[1-(1,1-dioxidothietan-3-yl)-1H-pyrazol-4-yl]pyridine-3-carboxamide]",7
4,"Cn1cnc(-c2ccc(O[C@H]3CCN(C(=O)Cc4ccc(OC5CC5)cc4)C[C@H]3F)c(C(N)=O)c2)c1 (racemic) [Example 40, 1:1 Cis-racemic 2-{[1-{[4-(cyclopropyloxy)phenyl]acetyl}-3-fluoropiperidin-4-yl]oxy}-5-(1-methyl-1H-imidazol-4-yl)benzamide]",1
5,CC(C)(O)Cn1cc(-c2ccc(O[C@@H]3CCN(C(=O)Cc4ccc(OC5CC5)cn4)C[C@H]3F)c(C(N)=O)c2)cn1 (racemic) [Example 43],6.9
6,Cn1cnc(-c2ccc(O[C@@H]3CCN(C(=O)Cc4ccc(OC5CC5)cc4)C[C@H]3F)c(C(N)=O)c2)c1 (racemic) [Example 44],3.8
7,CC(C)(O)Cn1cc(-c2ccc(O[C@H]3CCN(C(=O)Cc4ccc(OC5CC5)cn4)C[C@H]3F)c(C(N)=O)c2)cn1 (racemic) [Example 45],1.8
8,"Cn1cnc(-c2ccc(OC3CCN(C(=O)Cc4ccc(OC(F)(F)F)cc4)CC3(C)C)c(C(N)=O)c2)c1 (racemic) [Example 49, Racemic 2-((3,3-dimethyl-1-(2-(4-(trifluoromethoxy)phenyl)acetyl)piperidin-4-yl)oxy)-5-(1-methyl-1H-imidazol-4-yl)benzamide]",3.7
9,"CC1CN(C(=O)Cc2ccc(OC(F)(F)F)cc2)CCC1Oc1ccc(-c2cn(C)cn2)cc1C(N)=O (racemic) [Example 50, Racemic 2-((3-methyl-1-(2-(4-(trifluoromethoxy)phenyl)acetyl)piperidin-4-yl)oxy)-5-(1-methyl-1H-imidazol-4-yl)benzamide]",3.6
10,"CC1CC(Oc2ccc(-c3cn(C)cn3)cc2C(N)=O)CCN1C(=O)Cc1ccc(OC(F)(F)F)cc1 (racemic) [Example 51, Racemic 2-((2-methyl-1-(2-(4-(trifluoromethoxy)phenyl)acetyl)piperidin-4-yl)oxy)-5-(1-methyl-1H-imidazol-4-yl)benzamide]",6.1
11,"Cn1cnc(-c2ccc(O[C@@H]3CCN(C(=O)Cc4ccc(OC(F)(F)F)cc4)C[C@@H]3F)c(C(N)=O)c2)c1 (racemic) [Example 52, 1:1 racemic mixture of 2-(((3S,4R)-3-fluoro-1-(2-(4-(trifluoromethoxy)phenyl)acetyl)piperidin-4-yl)oxy)-5-(1-methyl-1H-imidazol-4-yl)benzamide + (3R,4S) enantiomer]",4.5
12,"CC(N)c1ccc(-c2cnc(OC3CCN(C(=O)Cc4ccc(OC(F)(F)F)cc4)CC3)c(C(N)=O)c2)cc1 (racemic) [Example 94, Racemic 5-[4-(1-aminoethyl)phenyl]-2-[(1-{[4-(trifluoromethoxy)phenyl]acetyl}piperidin-4-yl)oxy]pyridine-3-carboxamide]",8.8
